# Test results from US11168059B2, “Amino sulfonyl compounds” (CV6 Therapeutics (NI) Limited, priority 2016, dated 2021).
# Test system: colorectal (HCT116), breast (MCF-7) and non-small cell lung (H1299, A549, H358 and H460) cell line models
# Experiment: Colony forming assay
# Format: cell-based
# Settings: FUdR between 0.5 and 2.5 μmol/L; all cell lines evaluated
# Description: Colony forming assay showing the ability of colon (SW620, HCT116), non-small cell lung (A549, H460, H1299 and H358) and breast (MCF7) cancer cells to survive and proliferate following transient 24 hour exposure to test compounds, FUdR and combinations are determined. Specifically, cells are seeded at densities between 50 and 100 cells/well in 24-well plates. Twenty-four hours later, cells are treated with increasing concentrations of a rtest compound, a fixed dose of FUdR and combinations of these. After 24 hours, drug is removed, cells are rinsed and allowed to outgrow for 10-14 days. At the conclusion of the outgrowth, cells are fixed in 60% ice cold methanol and stained with 0.1% crystal violet, scanned and counted. Data is presented as percentage of untreated controls (mean±SD). Fraction affected and combination indexes are calculated according to the method of Chou and Talalay where <1 is indicative of a synergistic drug interaction.
# Colony forming assays are performed to evaluate the effectiveness of test compounds alone and in combination with the fluoropyrimidine thymidylate synthase (TS) inhibitor fluorodeoxyuridine (FUdR) at reducing cancer cell viability in colorectal (HCT116), breast (MCF-7) and non-small cell lung (H1299, A549, H358 and H460) cell line models. […]
row,SMILES,colonies formed
1,"O=c1[nH]c(=O)n([C@H]2C[C@H](O)[C@@H](CO)O2)cc1F [FUdR, fluorodeoxyuridine]",dose-dependent decreases in colonies formed

# Test system: colorectal (HCT 116 and SW620) cell line models
# Experiment: MTS growth inhibition assay
# Format: cell-based
# Settings: 5-FU between 0 and 100 μmol/L; both colorectal cancer cell lines
# Description: The Cell Titer AQueous MTS assay (Promega) is carried out according to the manufacturers guidelines. […] The combination effect is determined by the combination index (CI) method utilizing Calcusyn software (Biosoft, Ferguson, Mo.). […] CI values <1, synergism; 1-1.2, additive and >1.2, antagonism.
# Test compounds are evaluated for their antitumor activity in colorectal cancer cells using the MTS growth inhibition assay. HCT116 and SW620 cells are exposed to increasing concentrations of each agent for 72 hours and growth inhibition is directly compared to vehicle-treated controls. The NSCLC cell lines A549 and H1299 are exposed to increasing concentrations of each agent for 72 hours and growth inhibition is directly compared to vehicle-treated controls.
# Simultaneous treatment with increasing concentrations of 5-FU and a test compound at fixed concentrations of 25 μmol/L is determined.
row,SMILES,growth inhibition
1,"O=c1[nH]cc(F)c(=O)[nH]1 [Example 5-FU, 5-fluorouracil]",dose-dependent increases in growth inhibition

# Molecular target: T1, recombinant human deoxyuridine nucleotidohydrolase (dUTPase) (Homo sapiens, UniProt P33316)
# T1 construct: made in house
# T1 sequence (P33316 1-164 isoform P33316-2): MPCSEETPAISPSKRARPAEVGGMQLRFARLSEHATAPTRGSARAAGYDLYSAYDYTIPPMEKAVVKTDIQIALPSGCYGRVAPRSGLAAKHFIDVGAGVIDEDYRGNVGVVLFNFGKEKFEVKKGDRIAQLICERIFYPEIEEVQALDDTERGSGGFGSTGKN
# Experiment: dUTPase inhibition, fluorescence-based DNA polymerase assay
# Format: biochemical
# Settings: not given
# Description: Recombinant human deoxyuridine nucleotidohydrolase (dUTPase) is expressed and purified as described in Ladner R D, Carr S A, Huddleston M J, McNulty D E, Caradonna S J. J Biol Chem. 1996 Mar. 29; 271(13):7752-7. All drugs stocks are aliquoted and diluted as appropriate prior to use. The oligonucelotide primer, templates and fluorophore- and quencher-labeled detection probes are synthesized by Integrated DNA Technologies (Coralville, Iowa), subjected to polyacrylamide gel electrophoresis purification and reconstituted in Omnipur sterile nuclease-free water (EMD Chemicals USA, Gibbstown N.J.) at a stock concentration of 100 μmol/L. The two non-emissive (dark) quenching molecules incorporated into the detection probes include the Iowa black fluorescein quencher (IBFQ; absorption max 531 nm) and ZEN (non-abbreviation; absorption max 532 nm). The fluorescent label utilized is 6-FAM (5′-carboxyfluorescein; excitation max.=494 nm, emission max.=520 nm). Probes are further diluted to a working stock of 10 μmol/L and aliquoted to avoid repeated freeze/thaw cycles. AmpliTaq Gold DNA Polymerase, GeneAmp 10×PCR Buffer 2, MgCl2 and MicroAmp Optical 96-well Reaction Plates are purchased from Applied Biosystems (Carlsbad, Calif.). dNTPs are purchased individually at stock concentrations of 100 mmol/L from New England Biolabs at HPLC-certified >99% purity (Ipswich, Mass.).
# Reaction mixtures contained primer, probe and template at an equimolar final concentration of 0.4 μmol/L. Magnesium chloride (MgCl2) is included at a final concentration of 2 mmol/L. Non-limiting dNTPs are included in the reaction mix in excess at a final concentration of 100 μmol/L (dUTP/dTTP is excluded). AmpliTaq Gold DNA polymerase is added at 0.875 U/reaction, 2.5 μl of 10×PCR buffer 2 added and nuclease-free ddH2O added to a final reaction volume of 25 μl. For dUTP inhibition analysis, the volume of ddH2O is further modified to accommodate an additional 1 μl of dUTPase (10 ng/μl) and 1 μl of inhibitor or DMSO control. Thermal profiling and fluorescence detection is performed using a customized thermal program on board a Roche Lightcycler LC480 Instrument II. For analysis of dNTPs, the thermal profile consisted of an 8 min 37° C. step followed by a 10 min 95° C. step to ‘hot-start’ the Taq polymerase and a primer extension time of up to 30 min at 60° C. Raw fluorescence spectra for 6-FAM is measured at specified time intervals to follow assay progression on board a Roche LightCycler 480 Software Version 1.5 and exported and analyzed in Microsoft Excel (Microsoft, Redmond Wash.) and Prism (GraphPad Software, La Jolla Calif.). Fluorescence values for blank reactions (limiting dNTP omitted) are subtracted to give normalized fluorescence units (NFU) to account for background fluorescence.
# Test compounds are screened in a fluorescence-based assay. The assay employs a DNA polymerase-based approach utilizing an oligonucleotide template with 3 distinct regions: a 3′ primer binding region, a mid-template dUTP/thymidine triphosphate (TTP) detection region and a 5′ 6-[…] (FAM)-labeled probe binding region that incorporates a black hole quenching moiety. During the reaction, the probe and primer hybridize to the oligonucleotide template to form the template:primer:probe complex. When Taq polymerase binds to the primer in the TPP complex and dUTP is present, successful extension of the nascent strand occurs and the inherent 5′ to 3′ exonuclease activity of Taq polymerase cleaves and displaces the 6-FAM-labeled probe in a 5′ to 3′ direction, releasing the 6-FAM fluorophore from its proximity to the […]. This displacement effectively disrupts the Forster resonance energy transfer (FRET) and the resulting fluorescence detected upon excitation is directly proportional to the amount of the dUTP available in the assay for incorporation. […]
row,SMILES,IC50
1,"O=C1CN(Cc2ccc(CNS(=O)(=O)c3cccc(OC4CCCC4)c3)cc2)C(=O)N1 [Example 40, 3-(cyclopentyloxy)-N-(4-((2,4-dioxoimidazolidin-1-yl)methyl)benzyl)benzenesulfonamide]",1.4 µM
2,"CC(C)(NS(=O)(=O)c1cccc(OC2CCCC2)c1)c1ccc(CN2CC(=O)NC2=O)cc1 [Example 41, 3-(cyclopentyloxy)-N-(2-(4-((2,4-dioxoimidazolidin-1-yl)methyl)phenyl)propan-2-yl)benzenesulfonamide]",0.3 µM

# Same assay, conditions: mean over three concentrations, typically 100, 50 and 25 μmol/L, relative to in-run positive control
row,SMILES,% relative inhibition vs. positive control
1,"O=C1CN(C/C=C/CCCNS(=O)(=O)c2cccc(OCC3CC3)c2)C(=O)N1 [Compound 44a, (E)-3-(cyclopropylmethoxy)-N-(6-(2,4-dioxoimidazolidin-1-yl)hex-4-en-1-yl)benzenesulfonamide]",159%
2,"O=C1CN(CCCCCCNS(=O)(=O)c2ccc(F)c(OCC3CC3)c2)C(=O)N1 [Compound 44b, 3-(cyclopropylmethoxy)-N-(6-(2,4-dioxoimidazolidin-1-yl)hexyl)-4-fluorobenzenesulfonamide]",168%
3,"CC(C)COc1cc(S(=O)(=O)NCCC/C=C/CN2CC(=O)NC2=O)ccc1F [Compound 45a, (E)-N-(6-(2,4-dioxoimidazolidin-1-yl)hex-4-en-1-yl)-4-fluoro-3-isobutoxybenzenesulfonamide]",178%
4,"CC(C)COc1cc(S(=O)(=O)NCCCCCCN2CC(=O)NC2=O)ccc1F [Compound 45b, N-(6-(2,4-dioxoimidazolidin-1-yl)hexyl)-4-fluoro-3-isobutoxybenzenesulfonamide]",151%
5,"O=C1CCN(C/C=C/CCCNS(=O)(=O)c2ccc(F)c(OCC3CC3)c2)C(=O)N1 [Compound 49a, (E)-3-(cyclopropylmethoxy)-N-(6-(2,4-dioxotetrahydropyrimidin-1(2H)-yl)hex-4-en-1-yl)-4-fluorobenzenesulfonamide]",151%
6,"O=C1CCN(C/C=C/CCCNS(=O)(=O)c2ccc(F)c(OCC3CC3)c2)C(=O)N1 [Compound 49b, (E)-3-(cyclopropylmethoxy)-N-(6-(2,4-dioxotetrahydropyrimidin-1(2H)-yl)hex-4-en-1-yl)-4-fluorobenzenesulfonamide]",144%
7,"CC(C)COc1cc(S(=O)(=O)NCCC/C=C/CN2CCC(=O)NC2=O)ccc1F [Compound 50a, (E)-N-(6-(2,4-dioxotetrahydropyrimidin-1(2H)-yl)hex-4-en-1-yl)-4-fluoro-3-isobutoxybenzenesulfonamide]",156%
8,"CC(C)COc1cc(S(=O)(=O)NCCCCCCN2CCC(=O)NC2=O)ccc1F [Compound 50b, N-(6-(2,4-dioxotetrahydropyrimidin-1(2H)-yl)hexyl)-4-fluoro-3-isobutoxybenzenesulfonamide]",141%
9,"O=C1CN(Cc2ccc(CNS(=O)(=O)c3cccc(OC4CCCC4)c3)cc2)C(=O)N1 [Example 40, 3-(cyclopentyloxy)-N-(4-((2,4-dioxoimidazolidin-1-yl)methyl)benzyl)benzenesulfonamide]",53%
10,"CC(C)(NS(=O)(=O)c1cccc(OC2CCCC2)c1)c1ccc(CN2CC(=O)NC2=O)cc1 [Example 41, 3-(cyclopentyloxy)-N-(2-(4-((2,4-dioxoimidazolidin-1-yl)methyl)phenyl)propan-2-yl)benzenesulfonamide]",249%
11,"O=C1CN(CCOCCCNS(=O)(=O)c2cccc(OCC3CC3)c2)C(=O)N1 [Example 42, 3-(cyclopropylmethoxy)-N-(3-(2-(2,4-dioxoimidazolidin-1-yl)ethoxy)propyl)benzenesulfonamide]",136%
12,"O=C1CCN(CCOCCCNS(=O)(=O)c2cccc(OCC3CC3)c2)C(=O)N1 [Example 47, 3-(cyclopropylmethoxy)-N-(3-(2-(2,4-dioxotetrahydropyrimidin-1(2H)-yl)ethoxy)propyl) benzenesulfonamide]",8%
13,"O=C1CCN(CCCOCCNS(=O)(=O)c2cccc(OCC3CC3)c2)C(=O)N1 [Example 48, 3-(cyclopropylmethoxy)-N-(2-(3-(2,4-dioxotetrahydropyrimidin-1(2H)-yl)propoxy)ethyl)benzenesulfonamide]",82%
